Consider 18 compounds from patent US11459312B2, “Sulphur substituted 3-oxo-2,3-dihydropyridazine-4-carboxamides” (Bayer Aktiengesellschaft, priority 2017, dated 2022).

The target in assay [1] is T1, AHR (Homo sapiens, UniProt P35869).
T1 sequence (P35869 11-848): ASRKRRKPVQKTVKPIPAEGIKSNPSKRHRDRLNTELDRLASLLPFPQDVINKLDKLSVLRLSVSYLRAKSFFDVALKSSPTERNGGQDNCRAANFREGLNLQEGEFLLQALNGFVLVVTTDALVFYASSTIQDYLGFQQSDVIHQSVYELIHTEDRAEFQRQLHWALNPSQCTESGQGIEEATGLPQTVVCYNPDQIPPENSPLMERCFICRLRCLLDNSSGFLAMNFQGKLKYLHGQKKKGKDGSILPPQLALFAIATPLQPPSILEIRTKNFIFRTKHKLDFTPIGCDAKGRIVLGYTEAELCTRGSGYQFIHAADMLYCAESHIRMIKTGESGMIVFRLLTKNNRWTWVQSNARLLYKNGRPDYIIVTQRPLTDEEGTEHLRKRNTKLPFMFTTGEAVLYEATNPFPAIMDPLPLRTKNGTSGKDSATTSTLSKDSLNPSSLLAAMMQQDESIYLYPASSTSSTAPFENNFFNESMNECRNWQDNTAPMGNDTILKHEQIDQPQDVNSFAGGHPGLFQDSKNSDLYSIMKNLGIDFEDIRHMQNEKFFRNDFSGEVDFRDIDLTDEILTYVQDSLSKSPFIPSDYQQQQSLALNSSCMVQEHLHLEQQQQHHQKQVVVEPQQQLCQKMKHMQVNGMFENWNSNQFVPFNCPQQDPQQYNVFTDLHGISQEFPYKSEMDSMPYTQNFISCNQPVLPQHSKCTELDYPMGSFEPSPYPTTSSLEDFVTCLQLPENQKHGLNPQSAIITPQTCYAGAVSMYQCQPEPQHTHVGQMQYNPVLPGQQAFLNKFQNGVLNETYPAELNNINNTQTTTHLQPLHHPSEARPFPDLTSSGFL
The assay is described as follows: In vitro assay 3: AHR-regulated CYP1A1 expression in human cell line (U937, quantitative PCR). Format: cell-based. The conditions noted are these: human monocytic U937 cells, CYP1A1 expression induced with 200 μM KA, 6 hours, qPCR; read-out: Assay 3: Hum CYP1A1 Antagonism IC50. On the procedure: In Vitro Assay 3: AHR-Regulated CYP1A1 Expression in Human Cell Line
To assess the AHR inhibitory activity of the substances described in this application, the ability thereof to antagonize ligand-induced AHR gene regulation in a dose-dependent manner was quantified. For this purpose, quantitative PCR analysis was used to determine expression of the AHR-regulated gene CYP1A1 in a human monocytic U937 cell line upon stimulation with 200 μM KA in the presence and absence of AHR inhibitor. U937 cells were sown at a concentration of 2×10^5 cells/well in 100 μl of growth medium (RPMI 1640, 20% FCS) in 96-well microtitre plates. CYP1A1 expression was induced with 200 μM KA (positive control) in the presence or absence of the substances for 6 hours. Human U937 cells were typically incubated with eight different concentrations of the substances (1 nM, 3 nM, 10 nM, 30 nM, 100 nM, 300 nM, 1 μM and 3 μM) and analyzed in duplicate on the same microtitre plate. After stimulation, cells were lysed with Nucleic Acid Lysis Solution (#4305895, Applied Biosystems) and RNA was isolated using the 6100 Nucleic Acid Preparation Station (Applied Biosystems) and reverse-transcribed to cDNA using SuperScript VILO cDNA synthesis kit (#11754-250, Invitrogen). Unstimulated cells were used as the negative control. Taqman probes for human CYP1A1 (Hs01054797_g1) and human HPRT (Hs02800695_m1) were used to analyze fold expression of CYP1A1 of HPRT. Quantitation was performed on a Taqman SDS7900HT.

The target in assay [2] is T1, AHR. Nature of the assay: In vitro assay 1: AHR-luc transactivation assay, antagonism in human cell line (U87 glioblastoma cells, kynurenic acid prestimulated). The conditions noted are these: firefly luciferase DRE reporter, 150 μM kynurenic acid, 20 hours, read-out: Assay 1: AHR-luc Hum Antagonism IC50. Format: cell-based. More on the design: U87 glioblastoma cells (ATCC) endogenously expressing AHR; host or cells: U87 glioblastoma cells, stably transfected with DRE-firefly luciferase and renilla reporter constructs only. The method, then:
Transactivation Assay in Human Cell Line (In Vitro Assays 1 and 2)
Transactivation assays were carried out in U87 glioblastoma cells (ATCC) endogenously expressing AHR. In addition the cells were stably transfected with an AHR inducible firefly luciferase reporter gene construct that carried AHR-binding sites (DRE) in its promoter and a renilla reporter gene construct with constitutively active promoter. Kynurenic acid is an endogenous AHR activating ligand and was used to prestimulate test cells prior to testing the antagonistic properties of compounds.
In Vitro Assay 1: Antagonism in Human Cell Line
Cells in medium (tryptophan free RPMI, 1% FCS, 2 mM Glutamine) supplemented with 150 μM kynurenic acid were grown for 20 hours in absence (negative control) or presence of increasing concentrations of test compounds (typical dilutions: […], 0.25 nmol/L, 0.89 nmol/L; 3.1 nmol/L, 11 nmol/L, 38 nmol/L, 130 nmol/L, 470 nmol/L, 1.6 μmol/L, 5.7 μmol/L and 20 μmol/L in duplicates). As positive inhibition control cells supplemented with 150 μM kynurenic acid were incubated in presence of 5 μM Staurosporin. Normalization was done by positive and negative controls.
Firefly luciferase and Renilla activity was determined by the DualGlo Luciferase Assay System (Promega, #2920). Renilla activity was used to assess toxic effects of compounds.

With `C[C@@H](C[S+](C)[O-])NC(=O)c1cc(-c2ccc(C(F)(F)F)cc2)nn(-c2cnn(C)c2)c1=O` (single isomer, unassigned) [Example 24], the 50% inhibitory concentration (IC50) came out at 7.56 nM at AHR [1] and 7.54 nM on AHR [2].
In the case of `N=S1(=O)C[C@H](O)[C@H](NC(=O)c2cc(-c3ccc(Cl)cc3)nn(-c3cccc(F)c3)c2=O)C1` (single isomer, unassigned) [Example 45, 6-(4-chlorophenyl)-2-(3-fluorophenyl)-N-[(cis)-4-hydroxy-1-imino-1-oxidotetrahydro-1H-1lambda4-thiophen-3-yl]-3-oxo-2,3-dihydropyridazine-4-carboxamide], the 50% inhibitory concentration (IC50) worked out at 756 nM on AHR [1] and 56.9 nM at AHR [2].
`O=C(N[C@H]1CS(=O)(=O)C[C@H]1O)c1cc(-c2ccc(Cl)cc2)nn(-c2cccc(F)c2)c1=O` (single isomer, unassigned) [Example 57, 6-(4-Chlorophenyl)-2-(3-fluorophenyl)-N-[(cis)-4-hydroxy-1,1-dioxidotetrahydrothiophen-3-yl]-3-oxo-2,3-di hydropyridazine-4-carboxamide]: the figures for the 50% inhibitory concentration (IC50) at AHR [1] and at AHR [2] were 17.1 nM and 5.77 nM, respectively.
On the same counts, the results for `C[C@@H](CS(C)(=O)=O)NC(=O)c1cc(-c2ccc(Cl)cc2)nn(-c2cnn(C)c2)c1=O` [Example 50, 6-(4-Chlorophenyl)-2-(1-methyl-1H-pyrazol-4-yl)-N-[(2S)-1-(methylsulfonyl)propan-2-yl]-3-oxo-2,3-di hydropyridazine-4-carboxamide] are 43.7 nM and 30.5 nM.
For `C[C@@H](CS(C)(=N)=O)NC(=O)c1cc(-c2ccc(Cl)cc2)nn(-c2cccc(F)c2)c1=O` (single isomer, unassigned) [Example 8], the IC50 on AHR [2] turned out to be 140 nM.
Regarding `O=C(N[C@H]1CS(=O)(=O)C[C@H]1O)c1cc(-c2ccc(Cl)cc2)nn(-c2cccc(F)c2)c1=O` (racemic) [Example 55, 6-(4-Chlorophenyl)-2-(3-fluorophenyl)-N-[(cis)-4-hydroxy-1,1-dioxidotetrahydrothiophen-3-yl]-3-oxo-2,3-dihydropyridazine-4-carboxamide], the IC50 on AHR [1] turned out to be 27 nM; at AHR [2], 26.5 nM.
`CS(=O)(=O)CCNC(=O)c1cc(-c2ccc(Cl)cc2)nn(-c2cccc(F)c2)c1=O` [Example 59, 6-(4-Chlorophenyl)-2-(3-fluorophenyl)-N-[2-(methylsulfonyl)ethyl]-3-oxo-2,3-dihydropyridazine-4-carboxamide]: the IC50 on AHR [2] was found to be 326 nM.
The same measure, in the same setting: the same measure for `C[C@@H](C[S+](C)[O-])NC(=O)c1cc(-c2ccc(Cl)cc2)nn(-c2cccc(F)c2)c1=O` (single isomer, unassigned) [Example 4]: 40.2 nM; for `O=C(N[C@@H]1C[S+]([O-])C[C@@H]1O)c1cc(-c2ccc(C(F)(F)F)cc2)nn(-c2cccnc2)c1=O` (single isomer, unassigned) [Example 35, N-[(cis)-4-hydroxy-1-oxidotetrahydro-thiophen-3-yl]-3-oxo-2-(pyridin-3-yl)-6-[4-(trifluoromethyl)phenyl]-2,3-dihydropyridazine-4-carboxamide]: 272 nM.
With `C[C@@H](C[S+](C)[O-])NC(=O)c1cc(-c2ccc(Cl)cc2)nn(-c2cccc(F)c2)c1=O` (single isomer, unassigned) [Example 5], the half-inhibitory concentration (IC50) on AHR [2] was found to be 180 nM.
As to `O=C(N[C@@H]1C[S+]([O-])C[C@@H]1O)c1cc(-c2ccc(Cl)cc2)nn(-c2cccc(F)c2)c1=O` (single isomer, unassigned; (+)) [Example 31, (+)-6-(4-chlorophenyl)-2-(3-fluorophenyl)-N-[(cis)-4-hydroxy-1-oxidotetrahydro-thiophen-3-yl]-3-oxo-2,3-dihydropyridazine-4-carboxamide], at AHR [2], the IC50 came to 145 nM.
For `O=C(N[C@@H]1CS(=O)(=O)C[C@@H]1O)c1cc(-c2ccc(C(F)(F)F)cc2)nn(-c2cccc(F)c2)c1=O` (relative stereo) [Example 13, 2-(3-fluorophenyl)-N-[(cis)-4-hydroxy-1,1-dioxidotetrahydro-thiophen-3-yl]-3-oxo-6-[4-(trifluoromethyl)phenyl]-2,3-dihydropyridazine-4-carboxamide], the IC50 amounted to 18.6 nM on AHR [1] and 5.65 nM at AHR [2].
For `Cn1cc(-n2nc(-c3ccc(C(F)(F)F)cc3)cc(C(=O)N[C@@H]3CS(=N)(=O)C[C@@H]3O)c2=O)cn1` (stereo partly drawn) [Example 47, N-[(cis)-4-hydroxy-1-imino-1-oxidotetrahydro-1H-1lambda4-thiophen-3-yl]-2-(1-methyl-1H-pyrazol-4-yl)-3-oxo-6-[4-(trifluoromethyl)phenyl]-2,3-dihydropyridazine-4-carboxamide], the IC50 on AHR [2] worked out at 158 nM.
Take `C[C@@H](C[S+](C)[O-])NC(=O)c1cc(-c2ccc(C(F)(F)F)cc2)nn(-c2cnn(C)c2)c1=O` (mixture of isomers) [Example 23, 2-(1-Methyl-1H-pyrazol-4-yl)-N-[(2S)-1-(methylsulfinyl)propan-2-yl]-3-oxo-6-[4-(trifluoromethyl)phenyl]-2,3-dihydropyridazine-4-carboxamide]: at AHR [2], the IC50 came out at 5.37 nM.
Same read-out and setting: the same measure for `O=C(N[C@@H]1C[S+]([O-])C[C@@H]1O)c1cc(-c2ccc(Cl)cc2)nn(-c2cccc(F)c2)c1=O` (single isomer, unassigned) [Example 26, 6-(4-chlorophenyl)-2-(3-fluorophenyl)-N-[(cis)-4-hydroxy-1-oxidotetrahydro-thiophen-3-yl]-3-oxo-2,3-dihydropyridazine-4-carboxamide]: 33.3 nM; for `C[C@@H](CS(C)(=N)=O)NC(=O)c1cc(-c2ccc(Cl)cc2)nn(-c2cccc(F)c2)c1=O` (single isomer, unassigned) [Example 7]: 241 nM.
On to `CSC[C@H](C)NC(=O)c1cc(-c2ccc(Cl)cc2)nn(-c2cnn(C)c2)c1=O` [Example 48, 6-(4-Chlorophenyl)-2-(1-methyl-1H-pyrazol-4-yl)-N-[(2S)-1-(methylsulfanyl)propan-2-yl]-3-oxo-2,3-dihydropyridazine-4-carboxamide], for which the IC50 at AHR [1] is 29.9 nM; at AHR [2], 15.5 nM.
`O=C(N[C@@H]1CS(=O)(=O)C[C@@H]1O)c1cc(-c2ccc(C(F)(F)F)nc2)nn(-c2cccc(F)c2)c1=O` (single isomer, unassigned) [Example 20, (+)-2-(3-fluorophenyl)-N-[(cis)-4-hydroxy-1,1-dioxidotetrahydro-thiophen-3-yl]-3-oxo-6-[6-(trifluoromethyl)pyridin-3-yl]-2,3-dihydropyridazine-4-carboxamide]: the IC50 on AHR [2] was found to be 54.3 nM.

One may read the IC50 as the point on the concentration scale where inhibition reaches its midpoint.
